# According to patent publication US20260184721A2, “FUSED RING COMPOUND, CONJUGATE THEREOF AND USE THEREOF” (Keymed Biosciences (Chengdu) Co., Ltd., priority 2022, published 2026):
# Where two headings read alike, the source gives them in different places.
# Tests used:
# [1] = system: SK-BR-3 tumor cells; experiment: In vitro proliferation inhibitory activity of compounds of Formula (GH) on SK-BR-3 tumor cells (CCK8); format: cell-based; conditions: Homo sapiens, SK-BR-3, 72 h, 3 days of culture, read-out: IC50 for inhibiting proliferation of SK-BR-3 cells in vitro
# Experimental: The objective of this experiment is to detect the in vitro killing activity of the compound of Formula (GH) of the present disclosure on SK-BR-3 tumor cells (human breast cancer cells, Wuhan Procell, Catalog No. CL-0211). The cells were treated with different concentrations of the compound in vitro. After 3 days of culture, the number of viable cells was detected using CCK8 (Cell Counting Kit-8, Catalog No. TS547) reagents, and the in vitro activity of the test compound was evaluated according to the IC50 value.
# Taking the test method of in vitro killing activity on SK-BR-3 cells as an example, the following test was performed. […] After the cells were completely digested, 10 mL of cell culture medium containing 2% FBS was added to wash out the digested cells, centrifugation was performed at 300 g for 5 min, the supernatant was discarded, and then 10 to 20 mL of cell culture medium containing 2% FBS was added to resuspend the cells to prepare a single cell suspension. • (3) Cell plating: The SK-BR-3 single cell suspension was mixed well, the viable cell density was adjusted to 6×10^4 cells/mL with the cell culture medium containing 2% FBS, the cell suspension after density adjustment was mixed well, and added to a 96-well cell culture plate at 100 μL/well. Only 200 μL of PBS was added to the peripheral wells of the 96-well plate. The culture plate was incubated in an incubator for 24 hours (37° C., 5% CO2). • (4) Compound preparation: The compound was dissolved in DMSO (dimethyl sulfoxide, SIGMA) to prepare a 2 mM stock solution.
# The starting concentrations of small molecule compounds and Dxd were both 600 nM, and the preparation method was as follows.
# Then, 315 μL of different samples to be tested were added to the first column of a 96-well U-bottomed drug distribution plate, and the sample concentration was 1200 nM; 210 μL of the cell culture medium containing 2% FBS was added to each well of the second to tenth columns. 105 μL of the sample was taken from the first column and added to the 210 μL cell culture medium in the second column and mixed well, and 105 μL was taken and added to the third column, and so on to the tenth column. • (5) Sample loading operation: 100 μL of the sample to be tested of different concentrations was added to the culture plate, and two replicate wells were set for each sample. The culture plate was incubated in an incubator for 3 days (37° C., 5% CO2). • (6) Color development operation: The 96-well cell culture plate was taken out, the cell culture supernatant was removed by tapping, 100 μL of the RPMI 1640 basal medium (without FBS) containing 10% CCK8 was added, and then it was incubated in an incubator for about 1.5 hours (37° C., 5% CO2). • (7) Plate reading operation: The 96-well cell culture plate was taken out, placed in an ELISA reader (MD SpectraMax i3X), and A450 was determined by the ELISA reader. • (8) Data analysis: Microsoft Excel and Graphpad Prism 5 were used to process and analyze the data.
# [2] = system: NCI-N87 tumor cells; experiment: In vitro proliferation inhibitory activity of compounds of Formula (GH) on NCI-N87 tumor cells (CCK8); format: cell-based, human; conditions: read-out: IC50 for inhibiting proliferation of NCI-N87 cells in vitro
# Experimental: The objective of this experiment is to detect the in vitro killing activity of the compound of Formula (GH) disclosed in the present invention on NCI-N87 tumor cells (human gastric cancer cells, Cell Resource Center, Institute of Basic Medicine, Chinese Academy of Medical Sciences, Catalog No. 3111C0001CCC000481). The cells were treated with different concentrations of the compound in vitro, and after 6 days of culture, the number of viable cells was detected using CCK8 (Cell Counting Kit-8, Catalog No. TS547) reagents, and the in vitro activity of the test compound was evaluated according to the IC50 value.
# • (1) Cell culture: NCI-N87 cells were cultured in the RPMI 1640 medium containing 2% FBS (Shanghai BasalMedia Technologies Co., Ltd., Catalog No. L210KJ). • (2) Cell preparation: NCI-N87 cells in the logarithmic growth phase were taken, washed once with PBS (phosphate buffered saline, Shanghai BasalMedia Technologies Co., Ltd., Catalog No. E211004), added with 1 mL of trypsin (0.25% Trypsin-EDTA (1×), Shanghai BasalMedia Technologies Co., Ltd., Catalog No. A121002) to allow digestion for 2 to 3 minutes. After the cells were completely digested, 10 mL of the cell culture medium was added to wash off and obtain the digested cells, centrifugation was performed at 300 times gravitational acceleration (g) for 5 min, the supernatant was discarded, then 10 mL of PBS was added to wash the cells once, centrifugation was performed at 300 times gravitational acceleration (g) for 5 minutes, the supernatant was discarded, and 10 mL of the cell culture medium containing 2% FBS was added to resuspend the cells to prepare a single cell suspension. • (3) Cell plating: The NCI-N87 single cell suspension was mixed, the density of live cells was adjusted to 3×10^4 cells/mL with 2% FBS cell culture medium, the cell suspension after density adjustment was mixed well, and added to a 96-well cell culture plate at 100 μL/well. Only 200 μL of PBS was added to each of the peripheral wells of the 96-well plate. The plate was incubated in an incubator for 24 hours (37° C., 5% CO2). • (4) Preparation of sample to be tested:
# The sample to be tested was diluted to 3200 nM with cell culture medium containing 2% FBS, then 300 μL of the sample was added to the first well of a 96-well U-bottomed plate with a sample concentration of 3200 nM; and 210 μL of cell culture medium containing 2% FBS was added to each well of the second to tenth columns. 70 μL of the sample was taken from the first column and added to the 210 μL cell culture medium in the second column and mixed well, 70 μL was taken and added to the third column, and so on to the ninth column. • (5) Sample loading operation: 100 μL of the sample to be tested with different concentrations was added to the culture plate, two replicate wells were set for each sample. The culture plate was incubated in an incubator for 6 days (37° C., 5% CO2). • (6) Color development operation: The 96-well cell culture plate was taken out, the supernatant of the culture medium was removed by tapping, 100 μL of 10% CCK8 (prepared with RPMI 1640 basal culture medium, without FBS) solution was added to each well, and incubation was performed in an incubator for 2 hours. • (7) Plate reading operation: The 96-well cell culture plate was taken out, placed in an ELISA reader (SpectraMax i3X), and A450 was determined by the ELISA reader. • (8) Data analysis: Microsoft Excel and Graphpad Prism 5 were used to process and analyze the data.
# [3] = Homo sapiens, NCI-N87, 6 days of culture, CCK8
SMILES,IC50 [1] [nM],further results
"CC[C@@]1(O)C(=O)OCc2c1cc1n(c2=O)Cc2c-1nc1cc(F)c3c(c1c2CNC(=O)[C@@H](C)O)CCC3 [Compound 26, (R)-N-(((S)-8-Ethyl-4-fluoro-8-hydroxy-9,12-dioxo-2,3,8,9,12,14-hexahydro-1H,11H-cyclopenta[f]pyrano[3′,4′:6,7]indolizino[1,2-b]quinolin-15-yl)methyl)-2-hydroxypropanamide]",8.39,–
"CC[C@@]1(O)C(=O)OCc2c1cc1n(c2=O)Cc2c-1nc1cc(F)c(C)c3c1c2[C@@H](NC(=O)CO)CC3 [Dxd, reference compound]",–,"IC50 ([2]; 6 days of culture, CCK8): 10.2 nM"
"Cc1c(F)cc2nc3c(c4c2c1CC[C@@H]4NC(=O)CO)Cn1c-3cc2c(c1=O)COC(=O)[C@]2(O)CC1CC1 [Compound 1-B, N-((1S,9S)-9-(cyclopropylmethyl)-5-fluoro-9-hydroxy-4-methyl-10,13-dioxo-2,3,9,10,13,15-hexahydro-1H,12H-benzo[de]pyrano[3′,4′:6,7]indolizino[1,2-b]quinolin-1-yl)-2-hydroxyacetamide]",1.94,"IC50 [2, 3]: 5.36 nM"
"Cc1c(F)cc2nc3c(c4c2c1CC[C@H]4NC(=O)[C@@H](O)C1CC1)Cn1c-3cc2c(c1=O)COC(=O)[C@]2(O)CC1CC1 [Compound 4-B, (S)-2-cyclopropyl-N-((1R,9S)-9-(cyclopropylmethyl)-5-fluoro-9-hydroxy-4-methyl-10,13-dioxo-2,3,9,10,13,15-hexahydro-1H,12H-benzo[de]pyrano[3′,4′:6,7]indolizino[1,2-b]quinolin-1-yl)-2-hydroxyacetamide]",5.01,–
"CC[C@@]1(O)C(=O)OCc2c1cc1n(c2=O)Cc2c-1nc1cc(F)c3c(c1c2CNC(=O)[C@H](O)C1CC1)CCC3 [Compound 28, (R)-2-Cyclopropyl-N-(((S)-8-ethyl-4-fluoro-8-hydroxy-9,12-dioxo-2,3,8,9,12,14-hexahydro-1H,11H-cyclopenta[f]pyrano[3′,4′:6,7]indolizino[1,2-b]quinolin-15-yl)methyl)-2-hydroxyacetamide]",15.1,–
"Cc1c(F)cc2nc3c(c4c2c1CC[C@@H]4NC(=O)[C@H](C)O)Cn1c-3cc2c(c1=O)COC(=O)[C@]2(O)CC1CC1 [Compound 2-A, (S)-N-((1S,9S)-9-(Cyclopropylmethyl)-5-fluoro-9-hydroxy-4-methyl-10,13-dioxo-2,3,9,10,13,15-hexahydro-1H,12H-benzo[de]pyrano[3′,4′:6,7]indolizino[1,2-b]quinolin-1-yl)-2-hydroxypropanamide]",5.88,"IC50 [2, 3]: 1.92 nM"
"Cc1c(F)cc2nc3c(c4c2c1CC[C@@H]4NC(=O)[C@H](O)C1CC1)Cn1c-3cc2c(c1=O)COC(=O)[C@]2(O)CC1CC1 [Compound 5-A, (R)-2-Cyclopropyl-N-((1S,9S)-9-(cyclopropylmethyl)-5-fluoro-9-hydroxy-4-methyl-10,13-dioxo-2,3,9,10,13,15-hexahydro-1H,12H-benzo[de]pyrano[3′,4′:6,7]indolizino[1,2-b]quinolin-1-yl)-2-hydroxyacetamide]",9.27,–
"CC[C@@]1(O)C(=O)OCc2c1cc1n(c2=O)Cc2c-1nc1cc(F)c3c(c1c2CNC(=O)[C@@H](O)C1CC1)CCC3 [Compound 27, (S)-2-Cyclopropyl-N-(((S)-8-ethyl-4-fluoro-8-hydroxy-9,12-dioxo-2,3,8,9,12,14-hexahydro-1H,11H-cyclopenta[f]pyrano[3′,4′:6,7]indolizino[1,2-b]quinolin-15-yl)methyl)-2-hydroxyacetamide]",13.9,–
"Cc1c(F)cc2nc3c(c4c2c1CC[C@H]4NC(=O)CO)Cn1c-3cc2c(c1=O)COC(=O)[C@]2(O)CC1CC1 [Compound 1-A, N-((1R,9S)-9-(cyclopropylmethyl)-5-fluoro-9-hydroxy-4-methyl-10,13-dioxo-2,3,9,10,13,15-hexahydro-1H,12H-benzo[de]pyrano[3′,4′:6,7]indolizino[1,2-b]quinolin-1-yl)-2-hydroxyacetamide]",0.93,–
"CC[C@@]1(O)C(=O)OCc2c1cc1n(c2=O)Cc2c-1nc1cc(F)c3c(c1c2CNC(=O)[C@H](C)O)CCC3 [Compound 25, (S)-N-(((S)-8-Ethyl-4-fluoro-8-hydroxy-9,12-dioxo-2,3,8,9,12,14-hexahydro-1H,11H-cyclopenta[f]pyrano[3′,4′:6,7]indolizino[1,2-b]quinolin-15-yl)methyl)-2-hydroxypropanamide]",5.41,"IC50 ([2]; Homo sapiens, NCI-N87, […]): 5.46 nM"
"Cc1c(F)cc2nc3c(c4c2c1CC[C@H]4NC(=O)[C@@H](C)O)Cn1c-3cc2c(c1=O)COC(=O)[C@]2(O)CC1CC1 [Compound 3-B, (R)-N-((1R,9S)-9-(cyclopropylmethyl)-5-fluoro-9-hydroxy-4-methyl-10,13-dioxo-2,3,9,10,13,15-hexahydro-1H,12H-benzo[de]pyrano[3′,4′:6,7]indolizino[1,2-b]quinolin-1-yl)-2-hydroxypropanamide]",2.36,–
"CC[C@@]1(O)C(=O)OCc2c1cc1n(c2=O)Cc2c-1nc1cc(F)c3c(c1c2CNC(=O)CO)CCC3 [Compound 24, (S)-N-((8-ethyl-4-fluoro-8-hydroxy-9,12-dioxo-2,3,8,9,12,14-hexahydro-1H,11H-cyclopenta[f]pyrano[3′,4′:6,7]indolizino[1,2-b]quinolin-15-yl)methyl)-2-hydroxyacetamide]",5.79,–
"Cc1c(F)cc2nc3c(c4c2c1CC[C@H]4NC(=O)[C@H](C)O)Cn1c-3cc2c(c1=O)COC(=O)[C@]2(O)CC1CC1 [Compound 2-B, (S)-N-((1R,9S)-9-(Cyclopropylmethyl)-5-fluoro-9-hydroxy-4-methyl-10,13-dioxo-2,3,9,10,13,15-hexahydro-1H,12H-benzo[de]pyrano[3′,4′:6,7]indolizino[1,2-b]quinolin-1-yl)-2-hydroxypropanamide]",12,–
